System: DLD1 cells
Assay: Effect of anti-cancer drug on cellular acidity (AO red fluorescence, flow cytometry) and cell growth
Format: cell-based, human
Settings: DLD1 versus NCl/Adr cells at a given dose; AO red fluorescence after 6 hours exposure; growth 3 days after addition of drug, hemacytometer and trypan blue exclusion; FIG. 5
Method: Cells plated at 25% confluency were exposed to various doses of the drug for 6 hours and stained with AO (1 μg/ml, final concentration) for 30 minutes. Cells were washed 3× with PBS to remove residual stain, trypsinized to obtain a liquid suspension and assessed on a flow cytometer (FACSCalibur, Becton Dickinson San Jose Calif.). The red fluorescence of AO emanating from the cells was recorded on a linear scale in the cytometer's FL2 channel (emission filter >600 nm). A total of 30K cells were collected for post acquisition analysis with WinMDI Version 2.8 software (The Scripps Research Institute, La Jolla, Calif.). […] FIG. 5b plots the geometric mean of AO red fluorescence channel intensity against drug concentration for both DLD1 and NCl/Adr cells. In parallel cultures, cells were assessed for growth 3 days after the addition of drug (FIG. 5 c) —cells were enumerated with a hemacytometer and trypan blue exclusion staining.

With `CC(=O)O[C@H]1C(=O)[C@@]2(C)[C@H]([C@H](OC(=O)c3ccccc3)[C@]3(O)C[C@H](OC(=O)[C@H](O)[C@@H](NC(=O)c4ccccc4)c4ccccc4)C(C)=C1C3(C)C)[C@]1(OC(C)=O)CO[C@@H]1C[C@@H]2O` [paclitaxel] the “sensitivity of cancer cells to the drug (cell growth, reflected by acidic content of cells)” value was “DLD1 cells are more sensitive to paclitaxel than NCl/Adr”.

Reference: patent publication US20120040394A1, “MICROTUMOURS” (priority 2008, published 2012)
